Measurements as given in US6610270B1, “In vivo determination of metabolic function for use in therapy management” (Xanthus Life Sciences, Inc., priority 1998, dated 2003).

Tests used:
[1] = target: T1, cystathionine synthase (CS) (Oryctolagus cuniculus, UniProt Q9N0V7); experiment: CS gateway enzyme breath test with homocysteine metaprobe, basal and after methionine load; details: n = 4
T1 sequence (Q9N0V7 1-551): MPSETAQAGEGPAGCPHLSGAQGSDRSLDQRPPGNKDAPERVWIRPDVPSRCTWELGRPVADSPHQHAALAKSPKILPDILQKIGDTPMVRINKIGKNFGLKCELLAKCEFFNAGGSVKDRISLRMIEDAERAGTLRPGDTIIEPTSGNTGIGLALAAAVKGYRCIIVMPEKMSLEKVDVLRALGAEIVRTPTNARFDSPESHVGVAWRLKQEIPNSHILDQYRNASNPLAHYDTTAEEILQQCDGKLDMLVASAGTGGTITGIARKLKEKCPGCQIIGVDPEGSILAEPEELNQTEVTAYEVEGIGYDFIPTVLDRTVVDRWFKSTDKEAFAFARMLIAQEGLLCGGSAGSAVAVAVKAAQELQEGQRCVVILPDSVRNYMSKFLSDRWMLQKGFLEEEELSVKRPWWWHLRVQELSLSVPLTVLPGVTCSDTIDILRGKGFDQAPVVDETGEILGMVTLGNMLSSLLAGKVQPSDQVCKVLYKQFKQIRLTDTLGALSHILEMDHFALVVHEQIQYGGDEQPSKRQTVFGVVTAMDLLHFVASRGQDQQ

[2] = target: T1, cystathionine synthase (CS); details: male, New Zealand, rabbit, in vivo, iv, 2 mg/kg
oxoprolinase [3] = target: T2, oxoprolinase (Homo sapiens, UniProt O14841); experiment: 13C-OTC breath test, metabolic rate index with and without acetaminophen; type: in vivo; details: for Metabolic Rate Index, ACE+: 2 gm acetaminophen one hour prior to OTC; for Metabolic Rate Index, BASAL: oral 13C-OTC 1.5 mg/kg alone
T2 construct: Seven healthy volunteers (ages 22-39) each participated in two studies; from tissue; host or cells: whole body of human volunteers (oral dose, breath test)
T2 sequence (O14841 1-1288): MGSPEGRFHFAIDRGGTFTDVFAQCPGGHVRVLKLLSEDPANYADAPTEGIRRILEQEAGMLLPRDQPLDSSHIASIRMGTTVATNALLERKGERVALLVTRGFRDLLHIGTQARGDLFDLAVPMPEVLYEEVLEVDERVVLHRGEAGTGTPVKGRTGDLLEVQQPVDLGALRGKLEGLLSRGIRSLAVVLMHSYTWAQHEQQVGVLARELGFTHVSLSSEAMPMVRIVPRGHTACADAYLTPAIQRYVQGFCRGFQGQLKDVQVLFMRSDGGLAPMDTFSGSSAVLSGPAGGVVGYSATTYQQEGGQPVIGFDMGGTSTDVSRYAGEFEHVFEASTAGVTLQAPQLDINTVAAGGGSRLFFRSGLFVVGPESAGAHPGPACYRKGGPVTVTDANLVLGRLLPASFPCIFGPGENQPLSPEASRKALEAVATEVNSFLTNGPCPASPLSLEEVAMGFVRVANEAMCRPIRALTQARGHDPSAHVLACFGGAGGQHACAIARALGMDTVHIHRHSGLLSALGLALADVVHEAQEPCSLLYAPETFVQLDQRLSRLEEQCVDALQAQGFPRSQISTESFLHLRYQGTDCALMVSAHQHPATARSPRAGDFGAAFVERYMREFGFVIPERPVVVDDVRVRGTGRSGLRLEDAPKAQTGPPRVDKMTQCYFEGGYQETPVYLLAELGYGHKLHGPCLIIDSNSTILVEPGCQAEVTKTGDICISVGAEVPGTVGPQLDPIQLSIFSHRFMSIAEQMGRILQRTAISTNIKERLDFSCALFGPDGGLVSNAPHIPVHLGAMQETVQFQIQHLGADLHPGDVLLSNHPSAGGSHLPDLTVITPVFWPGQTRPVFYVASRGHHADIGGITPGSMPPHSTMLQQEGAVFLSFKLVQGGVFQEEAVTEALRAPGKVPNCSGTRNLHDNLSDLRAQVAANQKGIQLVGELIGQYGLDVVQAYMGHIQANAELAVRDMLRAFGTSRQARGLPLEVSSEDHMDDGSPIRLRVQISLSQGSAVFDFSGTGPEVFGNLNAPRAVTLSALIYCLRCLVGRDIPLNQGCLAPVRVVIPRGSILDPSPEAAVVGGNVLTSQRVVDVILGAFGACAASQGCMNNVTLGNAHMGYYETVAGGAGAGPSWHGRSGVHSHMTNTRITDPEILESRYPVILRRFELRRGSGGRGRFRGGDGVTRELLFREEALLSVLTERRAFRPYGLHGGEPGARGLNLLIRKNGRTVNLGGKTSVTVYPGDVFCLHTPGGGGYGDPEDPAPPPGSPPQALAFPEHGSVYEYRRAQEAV
Procedure: Seven healthy volunteers (ages 22-39) each participated in two studies. After three days on a weight maintaining diet, each participant was given a drink containing ^13C-labelled OTC (1.5 mg/kg), following which blood and expired breath were sampled frequently. In the first test, each participant received the OTC alone. In the second study at least one week later, each participant ingested 2 gm acetaminophen one hour prior to the OTC drink. Expired breath samples were analyzed for the ^13C enrichment (APE) of CO2, and expressed as isotopic enrichment in atom per cent excess (APE×1000) versus time, in the usual manner and in accordance with the general protocol described in Example I. A second panel of probands (ages 53-73) were tested in a similar manner.
From the pattern of label enrichment, at least two types of kinetic processes are apparent, one is absorption, since the metaprobe was dispensed orally, and the other disposition.
Deconvolution of this model by equation transformation and coefficient matching (Wagner, 1993) afforded separate kinetic measurements for the post absorptive metabolism of OTC in the metabolic compartment, and this was expressed as a fractional catabolic rate (Lassen and Perl, 1979). Lastly, the per cent of metaprobe dose recovered in breath was computed from the cumulative integral of the ^13CO2 enrichment versus time plot multiplied by the CO2 production rate for each proband, which in these experiments were measured by indirect calorimetry (but can also be estimated from formulas that have been proven to correlate an individual's height, weight, age and gender with CO2 production). The metabolic index for OTC utilization by oxoprolinase was then computed by the simple expedient of multiplying the dose of metaprobe by the per cent recovery and then by the fractional catabolic rate.
The data from the validating trial in this Example III all corroborate the biochemical hypothesis concerning the OTC metaprobe's mode of action as an indicator of oxoprolinase activity and, therefore, its utility as a surrogate indicator for glutathione production capacity. The results, which are expressed in terms of nanomoles of OTC metabolized per kilogram body weight per minute for the basal condition (BASAL), post acetaminophen (ACE+), and the stimulatory difference between ACE+ and BASAL (STIM) are shown in Table 5.

oxoprolinase [4] = target: T3, oxoprolinase (Rattus norvegicus, UniProt P97608); details: enzymatic assay; cited from earlier work
T3 sequence (P97608 1-1288): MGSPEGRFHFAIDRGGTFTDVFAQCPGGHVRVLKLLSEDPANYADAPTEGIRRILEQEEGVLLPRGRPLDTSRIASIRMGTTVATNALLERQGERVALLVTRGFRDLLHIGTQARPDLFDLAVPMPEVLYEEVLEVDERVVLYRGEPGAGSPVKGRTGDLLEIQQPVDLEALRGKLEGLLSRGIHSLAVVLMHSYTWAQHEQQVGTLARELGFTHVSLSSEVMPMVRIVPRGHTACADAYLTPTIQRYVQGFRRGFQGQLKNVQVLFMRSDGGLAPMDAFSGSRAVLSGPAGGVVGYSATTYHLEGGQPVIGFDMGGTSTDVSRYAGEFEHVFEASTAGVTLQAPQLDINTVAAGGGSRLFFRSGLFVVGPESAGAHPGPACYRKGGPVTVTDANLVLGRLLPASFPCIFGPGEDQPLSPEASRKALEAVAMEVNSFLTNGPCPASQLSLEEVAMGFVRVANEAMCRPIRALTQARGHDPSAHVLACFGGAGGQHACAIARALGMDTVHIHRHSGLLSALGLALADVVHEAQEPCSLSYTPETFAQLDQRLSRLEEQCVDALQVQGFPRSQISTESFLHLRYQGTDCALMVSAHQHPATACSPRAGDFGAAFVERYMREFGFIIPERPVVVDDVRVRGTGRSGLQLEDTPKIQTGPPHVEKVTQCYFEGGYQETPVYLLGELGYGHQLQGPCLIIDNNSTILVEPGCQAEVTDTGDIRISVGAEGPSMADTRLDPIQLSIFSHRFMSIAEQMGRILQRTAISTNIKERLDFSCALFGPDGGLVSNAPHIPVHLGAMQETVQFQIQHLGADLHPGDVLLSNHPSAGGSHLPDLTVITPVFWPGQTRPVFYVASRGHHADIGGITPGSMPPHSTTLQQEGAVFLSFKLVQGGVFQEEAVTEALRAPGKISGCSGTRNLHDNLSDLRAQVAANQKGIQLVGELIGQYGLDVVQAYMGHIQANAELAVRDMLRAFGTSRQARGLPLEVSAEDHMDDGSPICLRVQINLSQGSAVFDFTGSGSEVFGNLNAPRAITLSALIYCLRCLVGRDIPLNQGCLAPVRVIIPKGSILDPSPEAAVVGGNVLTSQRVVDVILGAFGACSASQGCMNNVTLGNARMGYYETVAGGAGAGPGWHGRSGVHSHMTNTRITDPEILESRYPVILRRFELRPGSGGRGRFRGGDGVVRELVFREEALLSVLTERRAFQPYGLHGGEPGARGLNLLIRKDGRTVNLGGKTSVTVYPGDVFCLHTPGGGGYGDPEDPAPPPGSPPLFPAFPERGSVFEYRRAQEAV

Metabolic Rate Index, ACE+ (oxoprolinase [3]; ALL (22-73 yrs., n = 12)) [nmol/kg/min]	Metabolic Rate Index, ACE+ (oxoprolinase [3]; OLD (53-73 yrs., n = 5)) [nmol/kg/min]	Metabolic Rate Index, ACE+ (oxoprolinase [3]; YOUNG (22-39 yrs., n = 7)) [nmol/kg/min]	Metabolic Rate Index, STIM (difference between ACE+ and BASAL) (oxoprolinase [3]; ALL (22-73 yrs., n = 12)) [nmol/kg/min]	Metabolic Rate Index, STIM (difference between ACE+ and BASAL) (oxoprolinase [3]; OLD (53-73 yrs., n = 5)) [nmol/kg/min]	Metabolic Rate Index, STIM (difference between ACE+ and BASAL) (oxoprolinase [3]; YOUNG (22-39 yrs., n = 7)) [nmol/kg/min]	Metabolic Rate Index, BASAL (oxoprolinase [3]; ALL (22-73 yrs., n = 12)) [nmol/kg/min]	Metabolic Rate Index, BASAL (oxoprolinase [3]; OLD (53-73 yrs., n = 5)) [nmol/kg/min]	Metabolic Rate Index, BASAL (oxoprolinase [3]; YOUNG (22-39 yrs., n = 7)) [nmol/kg/min]	Compound	LI, load tolerance index (BASAL minus MET+) [1]	Metabolic Response Index (MRI), BASAL [2]	action on oxoproline hydrolysis by oxoprolinase (oxoprolinase [4])
									CCOC(=O)[C@@H]1CCSC(=O)N1 [Homocysteine Metaprobe, L-2-oxo-tetrahydro-1,3-thiazine-4-carboxylic acid ethyl ester]	57 +/− 24 (n = 4) MicroMol/kg/hr.	85 +/− 14 (n = 4) MicroMol/kg/hr.	
515 ± 227	452 ± 161	547 ± 269	208 ± 82	117 ± 40	261 ± 115	307 ± 108	335 ± 110	286 ± 111	O=C(O)[C@@H]1CS[13C](=O)N1 [OTC, L-2-oxo[^13C]thiazolidine-4-carboxylic acid]			competitive inhibitor of oxoproline hydrolysis
